In patent US20140330261A1, “CATHETER FOR PERFORMING PHOTODYNAMIC ABLATION OF CARDIAC MUSCLE TISSUE VIA PHOTOCHEMICAL REACTION” (KEIO UNIVERSITY, priority 2010, published 2014):

What was measured:
[1] = tested on: right ventricular tissue isolated from a Wistar rat; test: Electrical conduction blocking via photodynamic therapy in cardiac muscle tissue extirpated from a rat (ex vivo); conditions: 4.3 μg/ml in Tyrode's perfusion fluid for 2 hours; 670.8 nm laser, 150 mW/cm^2, 3.5 J/cm^2; 5 minutes after photodynamic therapy
Procedure: The right ventricular tissue isolated from a Wistar rat was used as a sample. Talaporfin sodium was used as a photosensitive pigment. Talaporfin sodium was dissolved in a perfusion fluid at 4.3 μg/ml. Tyrode's solutions were used as perfusion fluids ([…] 37° C.). A semiconductor laser with a central wavelength of 670.8 nm was used as an excitation light source, and the irradiation was carried out at 150 mW/cm^2 and 3.5 J/cm^2. An experiment of electric conduction blocking in the cardiac muscle was carried out by the following procedures. 1. The heart was extirpated under deep anesthesia and the right ventricular wall was excised. 2. The excised tissue was subjected to perfusion in a Tyrode's solution comprising talaporfin sodium dissolved therein for 2 hours. 3. Three bipolar electrodes were positioned in cardiac muscle tissue. One such electrode was used for electrical stimulation (for conductance) and the two other electrodes were used for potential measurement (A and B). 4. A band-like laser beam was irradiated to the region between electrodes for potential measurement to perform photodynamic therapy. 5. Potentials at the electrodes for potential measurement A and B were measured during laser irradiation.

[2] = tested on: cardiac muscle tissue of the left auricle; test: Acute experiment (open-heart surgery) using swine: verification of immediate conduction block by photodynamic therapy; format: in vivo; conditions: 10 mg/kg intravenously, irradiation 30 minutes after administration, 663 nm, 5.2 W/cm^2, 208 J/cm^2, irradiation line approximately 30 mm
Procedure: Left auricular tissue obtained from a swine (body weight: 15.4 kg) was used as a sample. Talaporfin sodium was used as a photosensitive dye, and it was administered intravenously to the swine at 10 mg/kg of the body weight. The duration until light irradiation after the administration of the photosensitive dye was 30 minutes. Light irradiation was carried out using a semiconductor laser with a central wavelength of 663 nm at a power density of 5.2 W/cm^2, an energy density of 208 J/cm^2, and a spot size of 7 mm Φ. The experiment for verification of immediate conduction block using swine was carried out in accordance with the following procedure. 1. A swine was subjected to open-heart surgery under deep anesthesia and the left auricle was exposed. 2. Three bipolar electrodes were positioned in cardiac muscle tissue of the left auricle. One such electrode was used for electrical stimulation (for conductance) and the two other electrodes were used for potential measurement (A and B). 3. Talaporfin sodium was administered intravenously at 10 mg/kg. 4. The irradiation with a band-like laser beam was carried out in a dotted manner between electrodes for potential measurement 30 minutes after administration to perform photodynamic therapy. 5. The potential of an electrode for potential measurement B was measured during laser beam irradiation. 6. […]

C=Cc1c(C)c2cc3nc(c(CC(=O)N[C@@H](CC(=O)O)C(=O)O)c4[nH]c(cc5nc(cc1[nH]2)C(C)=C5CC)c(C)c4C(=O)O)[C@@H](CCC(=O)O)[C@@H]3C [Talaporfin sodium, talaporfin sodium]
electric conductivity of cardiac muscle tissue at the site irradiated with light after photodynamic therapy [1]: electric conductivity of cardiac muscle tissue was lost | delay of electric conduction at electrode B after light irradiation [2]: approximately 35.5 ms
